According to patent US10214477B2, “(Hetero)aryl cyclopropylamine compounds as LSD1 inhibitors” (Oryzon Genomics S.A., priority 2011, dated 2019):
Counter-ions that a name gives are not always drawn.

Test system: THP-1 cells
Assay: Induction of differentiation of THP-1 leukemia cells (CD11b membrane expression, flow cytometry)
Format: cell-based
Settings: Homo sapiens; percentage of CD11b positive THP-1 cells, 96 h treatment
Protocol: By analyzing the induction of CD11b membrane expression on THP-1 cells we are assessing the ability of LSD1 inhibitors to induce terminal monocytic differentiation of a MLL-AF9 AML cell line. […] They carry t(9;11)(p21;q23) leading to MLL-MLLT3 (MLL-AF9) fusion gene. This cell line can undergo monocytic differentiation upon treatment with the appropriate stimulus. […] In this assay, 150, 000 THP-1 cells were seeded in 1 ml of complete culture medium in 6-well tissue culture plates. […] Cells were kept in the presence of test compound for 96 h at a 5% CO2 atmosphere at 37° C. After this treatment period, cells were harvested, washed twice with PBS buffer and placed in a V-bottom 96-well plate. Each treated sample was split in two. […] Percentage of CD11b positive cells, as an indicator of monocytic differentiation, was determined compared to isotype control antibody stained cells. EC50 values were calculated by non-linear regression analysis.

SMILES	EC50
N[C@H]1CC[C@@H](N[C@@H]2C[C@H]2c2ccccc2)CC1 [Example 4, (cis)-N1-((1R,2S)-2-phenylcyclopropyl)cyclohexane-1,4-diamine hydrochloride]	5.3 nM
N[C@H]1CC[C@H](N[C@@H]2C[C@H]2c2ccccc2)CC1 [Example 5, (trans)-N1-((1R,2S)-2-phenylcyclopropyl)cyclohexane-1,4-diamine hydrochloride]	0.8 nM
